CC(C(=O)O)c1ccc(CC2CCCC2=O)cc1 (stereo not given)
solubility (mole fraction)
Details	283.15 K	288.15 K	293.15 K	298.15 K	303.15 K	308.15 K	313.15 K	318.15 K	323.15 K	328.15 K
in 1,4-dioxane	0.154	0.171	0.19	0.214	0.246	0.272	0.304	0.339	0.378	0.408
in acetonitrile	0.0234	0.0296	0.0364	0.0419	0.059	0.0847	0.113	0.166	0.233	0.318
in ethanol	0.0573	0.0676	0.0717	0.0943	0.123	0.154	0.208	0.252	0.316	0.389
in ethyl acetate	0.0521	0.0621	0.0752	0.0848	0.0996	0.13	0.162	0.19	0.244	0.301
in ethyl orthosilicate	0.0247	0.0293	0.0325	0.0365	0.043	0.0491	0.0565	0.0694	0.0796	0.0991
in isobutyl acetate	0.0261	0.0314	0.0357	0.0451	0.0583	0.0688	0.0913	0.116	0.144	0.191
in isopentyl acetate	0.0253	0.0306	0.035	0.0448	0.0561	0.0674	0.0829	0.109	0.134	0.165
in isopropanol	0.0589	0.0747	0.0874	0.0966	0.128	0.145	0.189	0.224	0.277	0.339
in isopropyl acetate	0.0298	0.0373	0.0443	0.056	0.0694	0.0819	0.11	0.134	0.176	0.229
in methanol	0.0694	0.0783	0.0897	0.118	0.163	0.216	0.283	0.364	0.496	0.628
in methyl acetate	0.0568	0.0659	0.0797	0.0895	0.11	0.136	0.17	0.205	0.255	0.325
in n-butyl acetate	0.0284	0.0338	0.0418	0.0527	0.0621	0.0764	0.096	0.122	0.156	0.205
in n-propanol	0.0526	0.0643	0.0792	0.0905	0.116	0.139	0.184	0.223	0.269	0.338
in n-propyl acetate	0.0384	0.0483	0.0529	0.0631	0.0814	0.0978	0.127	0.155	0.199	0.261
